# System: Hedgehog signalling (Gli-bla NIH3T3 cells, mShh stimulated)
# Test: Hedgehog signalling inhibition assay (Gli-Bla reporter assay in NIH 3T3 cells); note: mShh 400 ng/ml
# Format: cell-based
# Conditions: Mus musculus, NIH3T3, 24 h; read-out: EC50
# Experimental: Hedgehog signalling inhibition assays. The following table 2 represents the average EC50 values for particular compounds of the inventions. Gli-bla NIH3T3 cells (7500 cells/well) were plated the day prior to the assay in a 384-well and 96-format in complete growth medium. […] Cells were stimulated with mShh for 24 hours and then loaded with LiveBLAzer™-FRET B/G Substrate for 3 hours. Emission values at 460 nm and 530 nm were obtained using a standard fluorescence plate reader and the 460/530 Ratios plotted for each treatment (n=4 for each data point).
# J. Cancer, 2011, 30(7):472-81).
row,Structure (SMILES),EC50
1,O=C(Nc1ccc(Cl)c(-c2ccccn2)c1)c1ccc(N2CCCS2(=O)=O)cc1 [Example 84],< 10 nM
2,"O=C(Nc1ccc(Cl)c(-c2ccccn2)c1)c1ccc(N2CCOCS2(=O)=O)cc1Cl [Example 85, 2-chloro-N-(4-chloro-3-(pyridin-2-yl)phenyl)-4-(3,3-dioxido-1,3,4-oxathiazinan-4-yl)benzamide]",< 10 nM
3,O=C(Nc1ccc(Cl)c(-c2nccc3ccccc23)c1)c1ccc(N2CCCS2(=O)=O)cc1 [Example 86],28000 nM
4,O=C(Nc1ccc(Cl)c(-c2ccc3ccccc3n2)c1)c1ccc(N2CCCS2(=O)=O)cc1 [Example 87],3000 nM
5,O=C(Nc1ccc(Cl)c(-c2ccc3ncccc3n2)c1)c1ccc(N2CCCS2(=O)=O)cc1 [Example 88],10000 nM
6,O=C(Nc1ccc(Cl)c(-c2ncc3ccccc3n2)c1)c1ccc(N2CCCS2(=O)=O)cc1 [Example 89],14000 nM
7,O=C(Nc1ccc(Cl)c(-c2ccc3cnccc3n2)c1)c1ccc(N2CCCS2(=O)=O)cc1 [Example 90],12000 nM
8,O=C(Nc1ccc(Cl)c(-c2ccc3ccccc3n2)c1)c1ccc(N2CCCCS2(=O)=O)cc1 [Example 93],< 10 nM
9,O=C(Nc1ccc(Cl)c(-c2nccc3ccccc23)c1)c1ccc(N2CCCCS2(=O)=O)cc1 [Example 94],< 10 nM
10,O=C(Nc1ccc(Cl)c(-c2ncc3ccccc3n2)c1)c1ccc(N2CCCCS2(=O)=O)cc1 [Example 95],< 10 nM
11,O=C(Nc1ccc(Cl)c(-c2ccc3cnccc3n2)c1)c1ccc(N2CCCCS2(=O)=O)cc1 [Example 96],< 10 nM
12,O=C(Nc1ccc(Cl)c(-c2ccc3ncccc3n2)c1)c1ccc(N2CCCCS2(=O)=O)cc1 [Example 97],< 10 nM
13,O=C(Nc1ccc(Cl)c(-c2nccc3ccccc23)c1)c1ccc(N2CCCCS2(=O)=O)cc1Cl [Example 98],< 10 nM
14,O=C(Nc1ccc(Cl)c(-c2ccc3ccccc3n2)c1)c1ccc(N2CCCCS2(=O)=O)cc1Cl [Example 99],< 10 nM
15,O=C(Nc1ccc(Cl)c(-c2ncc3ccccc3n2)c1)c1ccc(N2CCCCS2(=O)=O)cc1Cl [Example 100],< 10 nM
16,O=C(Nc1ccc(Cl)c(-c2ccc3cnccc3n2)c1)c1ccc(N2CCCCS2(=O)=O)cc1Cl [Example 101],< 10 nM
17,O=C(Nc1ccc(Cl)c(-c2ccc3ncccc3n2)c1)c1ccc(N2CCCCS2(=O)=O)cc1Cl [Example 102],< 10 nM
18,O=C(Nc1ccc(Cl)c(-c2nccc3ncccc23)c1)c1ccc(N2CCCCS2(=O)=O)cc1Cl [Example 103],< 10 nM
19,"O=C(Nc1ccc(Cl)c(-c2nccc3ccccc23)c1)c1ccc(N2CCOCS2(=O)=O)cc1Cl [Example 104, 2-chloro-N-(4-chloro-3-(isoquinolin-1-yl)phenyl)-4-(3,3-dioxido-1,3,4-oxathiazinan-4-yl)benzamide]",< 10 nM
20,"O=C(Nc1ccc(Cl)c(-c2nccc3ncccc23)c1)c1ccc(N2CCOCS2(=O)=O)cc1Cl [Example 105, 2-chloro-N-(4-chloro-3-(1,6-naphthyridin-5-yl)phenyl)-4-(3,3-dioxido-1,3,4-oxathiazinan-4-yl)benzamide]",< 10 nM
21,"O=C(Nc1ccc(Cl)c(-c2ccc3ncccc3n2)c1)c1ccc(N2CCOCS2(=O)=O)cc1Cl [Example 106, 2-chloro-N-(4-chloro-3-(1,5-naphthyridin-2-yl)phenyl)-4-(3,3-dioxido-1,3,4-oxathiazinan-4-yl)benzamide]",< 10 nM
22,"O=C(Nc1ccc(Cl)c(-c2ccc3cnccc3n2)c1)c1ccc(N2CCOCS2(=O)=O)cc1Cl [Example 107, 2-chloro-N-(4-chloro-3-(1,6-naphthyridin-2-yl)phenyl)-4-(3,3-dioxido-1,3,4-oxathiazinan-4-yl)benzamide]",< 10 nM
23,"O=C(Nc1ccc(Cl)c(-c2nccc3ccccc23)c1)c1ccc(N2CCOCS2(=O)=O)cc1 [Example 108, N-(4-chloro-3-(isoquinolin-1-yl)phenyl)-4-(3,3-dioxido-1,3,4-oxathiazinan-4-yl)benzamide]",11000 nM
24,"O=C(Nc1ccc(Cl)c(-c2nccc3ncccc23)c1)c1ccc(N2CCOCS2(=O)=O)cc1 [Example 109, N-(4-chloro-3-(1,6-naphthyridin-5-yl)phenyl)-4-(3,3-dioxido-1,3,4-oxathiazinan-4-yl)benzamide]",< 10 nM
25,Cc1ccc(NC(=O)c2ccc(N3CCCS3(=O)=O)cc2Cl)cc1-c1nccc2ccccc12 [Example 111],< 10 nM
26,O=C(Nc1ccc(Cl)c(-c2nccc3ncccc23)c1)c1ccc(N2CCCS2(=O)=O)cc1Cl [Example 112],< 10 nM
27,O=C(Nc1ccc(Cl)c(-c2nccc3ncccc23)c1)c1ccc(N2CCCS2(=O)=O)c(Cl)c1 [Example 113],< 10 nM

row,Structure (SMILES),EC50
1,O=C(Nc1ccc(Cl)c(-c2nccc3ccccc23)c1)c1ccc(N2CCCS2(=O)=O)c(Cl)c1 [Example 114],< 10 nM
2,O=C(Nc1ccc(Cl)c(-c2nccc3ccccc23)c1)c1ccc(N2CCCCS2(=O)=O)c(Cl)c1 [Example 115],< 10 nM
3,"O=C(Nc1ccc(Cl)c(-c2nccc3ncccc23)c1)c1ccc(N2CCOCS2(=O)=O)cc1F [Example 116, N-(4-chloro-3-(1,6-naphthyridin-5-yl)phenyl)-4-(3,3-dioxido-1,3,4-oxathiazinan-4-yl)-2-fluorobenzamide]",< 10 nM
4,"O=C(Nc1ccc(Cl)c(-c2nccc3ccccc23)c1)c1ccc(N2CCOCS2(=O)=O)cc1F [Example 117, N-(4-chloro-3-(isoquinolin-1-yl)phenyl)-4-(3,3-dioxido-1,3,4-oxathiazinan-4-yl)-2-fluorobenzamide]",16000 nM
5,O=C(Nc1ccc(Cl)c(NC(=O)c2ccccc2)c1)c1ccc(N2CCCS2(=O)=O)c(F)c1 [Example 118],< 10 nM
6,O=C(Nc1ccc(Cl)c(NC(=O)c2cccnc2)c1)c1ccc(N2CCCS2(=O)=O)c(F)c1 [Example 119],< 10 nM
7,O=C(Nc1cc(NC(=O)c2ccc(N3CCCS3(=O)=O)cc2Cl)ccc1Cl)c1cccc(Cl)c1 [Example 120],< 10 nM
8,O=C(Nc1ccc(Cl)c(NC(=O)c2cccc(Cl)c2)c1)c1ccc(N2CCCS2(=O)=O)c(F)c1 [Example 121],< 10 nM
9,"O=C(Nc1cc(NC(=O)c2ccc(N3CCOCS3(=O)=O)cc2Cl)ccc1Cl)c1ccccc1 [Example 122, N-(3-benzamido-4-chlorophenyl)-2-chloro-4-(3,3-dioxido-1,3,4-oxathiazinan-4-yl)benzamide]",< 10 nM
10,"O=C(Nc1ccc(Cl)c(-c2ccccn2)c1)c1ccc(N2CCOCS2(=O)=O)cc1F [Example 123, N-(4-chloro-3-(pyridin-2-yl)phenyl)-4-(3,3-dioxido-1,3,4-oxathiazinan-4-yl)-2-fluorobenzamide]",< 10 nM
11,"O=C(Nc1cc(NC(=O)c2ccc(N3CCOCS3(=O)=O)cc2F)ccc1Cl)c1ccccc1 [Example 124, N-(3-benzamido-4-chlorophenyl)-4-(3,3-dioxido-1,3,4-oxathiazinan-4-yl)-2-fluorobenzamide]",< 10 nM
12,"O=C(Nc1cc(NC(=O)c2ccc(N3CCOCS3(=O)=O)cc2Cl)ccc1Cl)c1cccc(F)c1 [Example 125, 2-chloro-N-(4-chloro-3-(3-fluorobenzamido)phenyl)-4-(3,3-dioxido-1,3,4-oxathiazinan-4-yl)benzamide]",< 10 nM
13,"O=C(Nc1cc(NC(=O)c2ccc(N3CCOCS3(=O)=O)cc2Cl)ccc1Cl)c1ccc(Cl)cc1 [Example 126, 2-chloro-N-(4-chloro-3-(4-chlorobenzamido)phenyl)-4-(3,3-dioxido-1,3,4-oxathiazinan-4-yl)benzamide]",< 10 nM
14,"O=C(Nc1cc(NC(=O)c2ccc(N3CCOCS3(=O)=O)cc2Cl)ccc1Cl)c1nccs1 [Example 127, N-(2-chloro-5-(2-chloro-4-(3,3-dioxido-1,3,4-oxathiazinan-4-yl)benzamido)phenyl)thiazole-2-carboxamide]",< 10 nM
15,O=C(Nc1ccc(Cl)c(NC(=O)c2cccc(Cl)c2)c1)c1ccc(N2CCCCS2(=O)=O)cc1 [Example 128],< 10 nM
16,O=C(Nc1ccc(Cl)c(NC(=O)c2cccc(Cl)c2)c1)c1ccc(N2CCCS2(=O)=O)cc1 [Example 129],< 10 nM
17,O=C(Nc1cc(NC(=O)c2ccc(N3CCOCS3(=O)=O)cc2Cl)ccc1Cl)c1cccc(Cl)c1 [Example 130],< 10 nM
18,O=C(Nc1ccc(Cl)c(Oc2cccc(Cl)c2)c1)c1ccc(N2CCCS2(=O)=O)cc1Cl [Example 131],< 10 nM
19,O=C(Nc1ccc(Cl)c(NC(=O)c2cccc(Cl)c2)c1)c1ccc(N2CCCS2(=O)=O)c(Cl)c1 [Example 132],< 10 nM
20,"O=C(Nc1ccc(Cl)c(NC(=O)c2ccccc2Cl)c1)c1ccc(N2CCOCS2(=O)=O)cc1Cl [Example 133, 2-chloro-N-(4-chloro-3-(2-chlorobenzamido)phenyl)-4-(3,3-dioxido-1,3,4-oxathiazinan-4-yl)benzamide]",< 10 nM
21,O=C(Nc1cc(NC(=O)c2ccc(N3CCCS3(=O)=O)cc2Cl)ccc1Cl)c1ccccc1 [Example 134],< 10 nM
22,"O=C(Nc1cc(NC(=O)c2ccc(N3CCCS3(=O)=O)cc2Cl)ccc1Cl)c1cccnc1 [Example 135, N-(2-chloro-5-(2-chloro-4-(1,1-dioxidoisothiazolidin-2-yl)benzamido)phenyl) nicotinamide]",< 10 nM
23,O=C(Nc1cc(NC(=O)c2ccc(N3CCOCS3(=O)=O)cc2Cl)ccc1Cl)c1cccnc1 [Example 136],< 10 nM
24,O=C(Nc1ccc(Cl)c(Oc2cccc(Cl)c2)c1)c1ccc(N2CCOCS2(=O)=O)cc1Cl [Example 137],< 10 nM
25,O=C(Nc1ccc(Cl)c(Oc2cccc(Cl)c2)c1)c1ccc(N2CCCS2(=O)=O)cc1 [Example 138],< 10 nM
26,O=C(Nc1ccc(Cl)c(Oc2cccc(Cl)c2)c1)c1ccc(N2CCCS2(=O)=O)c(F)c1 [Example 139],< 10 nM
27,CC(=O)Nc1cc(NC(=O)c2ccc(N3CCCS3(=O)=O)cc2Cl)ccc1Cl [Example 140],1000 nM

# Reference: patent US10183013B2, “Cyclic sulfonamide containing derivatives as inhibitors of hedgehog signaling pathway” (NantBioScience, Inc., priority 2012, dated 2019)
